Columns and labels:
male Wistar rats = conditions: 10-25 mg/kg, literature; cited from earlier work
[1] = system: male Syrian golden hamsters; assay: golden hamster seed finding model of anxiety; assay type: in vivo, Mesocricetus auratus
Text: Clavulanic acid (CLAV) is structurally similar to the beta-lactam antibiotics. A most robust and simple bioassay for screening beta-lactams for CNS activity is the golden hamster seed finding model of anxiety. Briefly, hamsters are deprived of food overnight. The following day they are exposed to the additional stress of being taken from their home cage and placed in a novel environment for a few minutes. This manipulation stimulates the release of the stress hormone cortisol (FIG. 13). During their absence from the home cage, sunflower seeds are hidden under the bedding in one of the corners. When returned to the home cage, hamsters routinely scramble along the walls for 1-2 min before settling down, locating and eating the seeds. However, animals treated with the benzodiazepine anxiolytic chlordiazepoxide find seeds in less than 10 sec.
Male, Syrian golden hamsters (Mesocricetus auratus) (120-130 g) obtained from Harlan Sprague-Dawley Laboratories (Indianapolis, Ind.) were housed individually in Plexiglas cages (24 cm×24 cm×20 cm), maintained on a reverse light:dark cycle (14L: 10D; lights on at 19:00 hr) and provided food and water ad libitum. A range of concentrations of CLAV (saline vehicle, 0.1, 1.0, 10, 100 1,000 ng/kg) were tested in six groups of hamsters (4-8/group)(FIG. 1). All tests were conducted during the dark phase of the circadian cycle under dim red illumination. Prior to testing all animals were fasted for 20-24 hrs. Ninety min after intraperitoneal (IP) injection of drug, animals were taken from their home cage and placed into a holding cage for 2 min. During their absence, six sunflower seeds were buried under the bedding in one corner of their home cage. Animals were placed back into their home cage randomly facing any one of the empty corners and timed for their latency to find the seeds in a five min observation period. Latency times were analyzed with a one-way ANOVA followed by Scheffe's post hoc tests. Assumption of equal variances was tested (Hartley's F-max=2.1 p>0.05)
It was hypothesized that CLAV functioned as an anxiolytic in the seed finding assay by blocking NAALADase activity in the brain. If this notion were true then it would be predicted that drugs known to block NAALADase should also enhance seed finding. To this end, animals were treated with N-acetyl-beta-aspartyl-glutamic acid (beta-NAAG), a competitive inhibitor of NAALADase (Serval et al., 1992) and tested in the seed finding model of anxiety. The study was similar to that outlined in Section I with one notable exception. […] Beta-NAAG (FW 304) was given in a dose of 3 ng in a volume of 1 μl saline ICV. The average adult hamster brain weights ca. 1.2 g of which 22% is extracellular fluid. The estimated beta-NAAG concentration was 11 ng/ml or 36 nM.
Two groups of six animals each were fasted overnight as previously described and tested the following day. One group was treated with beta-NAAG and the other saline vehicle and one hr later timed for latency to find the hidden sunflower seeds. A Student t-test for unpaired data was used for statistical comparisons.

[2] = system: neurogenic peptidases (e.g., NAALADases); assay: delivery of peptide directly into the brain, behavior; assay type: in vivo; conditions: effective amounts directly into the brain
male golden hamsters = assay: resident/intruder paradigm of offensive aggression; assay type: in vivo, hamster; conditions: 3 ng ICV, after the seed finding assay
Text: Agonistic behavior can be classified as either offensive or defensive aggression (Blanchard and Blanchard, 1977; Adams, […]; Albert and Walsh, 1984). Offensive aggression is characterized by an aggressor initiating an attack on an opponent; while, defensive aggression lacks active approach. Both types of aggression have their own unique neurobehavioral systems. The stimuli that elicit offensive and defense attack are different, as are the sequences of behaviors that accompany each agonistic response. […] Offensive aggression is easily studied using male golden hamsters tested in a resident/intruder paradigm, an established model of offensive aggression (Ferris and Potegal 1988) in the context of defending the home burrow. Placing an unfamiliar male hamster into the home cage of another male hamster elicits a well-defined sequence of agonistic behaviors from the resident that includes offensive aggression.
Hamsters are nocturnal and as such all behavioral tests were performed during the first four hrs of the dark phase under dim red illumination. The resident was scored for offensive aggression, e.g., latency to bite the intruder, the total number of bites, total contact time with the intruder and flank marking over a 10 min test period (Ferris and Potegal, 1988). Flank marking is a form of olfactory communication in which a hamsters arches its back and rubs pheromone producing flank glands against objects in the environment (Johnston, 1986).
Five male golden hamsters (130-140 g) were given IP injections of CLAV (200 μg/kg) and saline vehicle in a volume of ca. 0.2 ml. […] Vehicle and CLAV treatments were counter balanced and randomized so all five animals received each treatment separated by at least 48 hrs. Animals were tested 90 min after treatment over a 10 min observation period. Latencies and contact time were analyzed with a two-way ANOVA. Non-parametric data, i.e., number of bites and flank marks were analyzed by Wilcoxon matched-pairs signed-ranks test.
The animals tested in this study were those used in Section IX. After the seed finding assay, beta-NAAG (n=6) and saline vehicle (n=6) treated animals remained in their home cage and were presented with a smaller, male intruder. The resident was scored for latency to bite, bites, contact time and flank marking over a 10 min observation period. Latency to bite and contact time between treatments were compared with Student t-tests. Non-parametric measures of bites and flank marks for beta-NAAG vs vehicle were compared with Mann-Whitney.

[3] = in vivo; cited from earlier work

In the case of CNC1=Nc2ccc(Cl)cc2C(c2ccccc2)=[N+]([O-])C1 [CDP, Chlordiazepoxide], the motor activity (male Wistar rats) is listed as “depresses motor activity” and the seed finding time ([1]; benzodiazepine anxiolytic, dose not given) is listed as “less than 10 sec”.
With Ala-D-γ-Glu-Lys-D-alanyl-D-alanine the “behavioral characteristics compared with β-lactam compounds” value [2] was “produced the same modified behavioral characteristics”.
In the case of CC(=O)N[C@@H](CC(=O)N[C@@H](CCC(=O)O)C(=O)O)C(=O)O [beta-NAAG, N-acetyl-beta-aspartyl-glutamic acid], the “measures of offensive aggression (latency to bite, bites, contact time, flank marking) vs vehicle” value (male golden hamsters) is given as “no significant differences”, the “difference in latency to find the seeds vs saline vehicle” value ([1]; 3 ng in 1 μl ICV, one hr) is given as “significantly (p<0.001) different” and the “passage of the blood-brain barrier” value [3] is given as “does not readily cross the blood-brain barrier”.
